This is an account of results in publication PMC12320831, “Synthesis and Biological Evaluation of New Chalcogen Semicarbazone (S, Se) and Their Azole Derivatives against Chagas Disease” (Journal of Medicinal Chemistry, 2024).

A short description of the test: DPPH radical scavenging (antioxidant) assay. As to conditions: for Percentage of inhibited DPPH (2 h): mean ± SEM. On the procedure: The antioxidant capacity of the selected Se compound was tested using the DPPH assay described by Astrain-Redin. The compound was tested at three different concentrations (0.06, 0.03, and 0.015 mg/mL) and we used two positive controls: ascorbic acid (ASC) and trolox (TRO). A solution of DPPH (2,2-diphenyl-1-picrylhydrazyl) in methanol (0.04 mg/mL, preserved in the dark) was prepared and 100 μL of this stock solution was added to 100 μL of tested compound solution. The color change, from purple (radical) to yellow (reduced), was measured at 517 nm at different time points (0, 5, 15, 30, 60, 90, and 120 min). All measurements were carried out in triplicate and recorded on a BioTek PowerWave XS spectrophotometer (Biotek). Data were collected using BioTek Gen5Microplate reader and Imager software (Agilent, version 3.12). Results are expressed as a percentage of inhibited DPPH ± standard error of the mean (SEM), calculated using the following formula %inhibitedDPPH=Acontrol−Asample/Acontrol×100 where A control refers to the absorbance of the negative control and A sample refers to the absorbance of the tested compound.
On the technique in general: DPPH is a stable violet radical that fades when it is reduced.

Consider `C/C(=N\Nc1nc(C)c[se]1)c1cccc([N+](=O)[O-])c1.Cl` [Se2h, (E)-4-Methyl-2-(2-(1-(3-nitrophenyl)ethylidene)hydrazineyl)-1,3-selenazole Hydrochloride], for which the “Percentage of inhibited DPPH (2 h)” value by setting is: (0,03 mg/ml) 78,00 ± 1,73%; (0,06 mg/ml) 78,33 ± 1,76%; (0,015 mg/ml) 77,33 ± 0,88%. The “time to reach the plateau of the DPPH kinetic curve” value (0.015 mg/mL) was found to be 30 min. For the setting “all tested concentrations (0.06, 0.03 and 0.015 mg/mL)”, the “inhibition of DPPH after 2 h” value is reported as “more than 60%”.
